According to PMC5942844, “Identification and characterization of the Fasciola hepatica sodium- and chloride-dependent taurine transporter” (PLoS Neglected Tropical Diseases, 2018):
Where two headings read alike, the source gives them in different places.

Tests used:
[1] = biological target: T1, F. hepatica taurine transporter (FhTauT) (Fasciola hepatica, UniProt A0A2R4LGM2); assay: cell-based
T1 sequence (A0A2R4LGM2 1-647): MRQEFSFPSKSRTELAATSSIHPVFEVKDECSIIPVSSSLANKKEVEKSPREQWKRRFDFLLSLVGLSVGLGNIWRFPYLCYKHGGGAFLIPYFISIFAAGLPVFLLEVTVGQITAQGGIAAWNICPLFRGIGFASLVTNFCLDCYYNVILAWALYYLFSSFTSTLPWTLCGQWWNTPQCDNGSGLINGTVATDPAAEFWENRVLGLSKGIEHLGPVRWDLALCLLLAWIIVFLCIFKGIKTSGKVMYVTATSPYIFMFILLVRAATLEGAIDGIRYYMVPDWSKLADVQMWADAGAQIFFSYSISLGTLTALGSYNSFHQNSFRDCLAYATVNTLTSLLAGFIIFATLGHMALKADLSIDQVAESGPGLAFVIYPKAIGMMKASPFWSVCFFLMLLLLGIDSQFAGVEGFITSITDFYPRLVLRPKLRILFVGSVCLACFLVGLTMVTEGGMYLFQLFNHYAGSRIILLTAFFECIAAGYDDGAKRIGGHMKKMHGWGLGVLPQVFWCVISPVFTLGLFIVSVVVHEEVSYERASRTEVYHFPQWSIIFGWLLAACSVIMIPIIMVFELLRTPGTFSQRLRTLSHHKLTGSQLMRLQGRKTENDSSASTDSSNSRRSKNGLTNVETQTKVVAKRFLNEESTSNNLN
Description: (§1) Human embryonic kidney-293 (HEK293 (ATCC CRL-1573, LGC standards Wesel, Germany)) cells, were grown in Dulbecco`s modified Eagle medium (DMEM) supplemented with 10% fetal bovine serum (FCS Nuaille, France), 100 units/ml penicillin and 100 μg/ml streptomycin at 37°C and with 5% CO2 in a humidified incubator. Cells were transfected with plasmids encoding fluorescently tagged or untagged versions of F. hepatica (FhTauT) and H. sapiens (HsTauT) taurine transporter using Jet Prime transfection reagent (Polyplus-transfection, France). To generate monoclonal cell lines stably expressing the transporters, transfected cells were subjected to and selected with the concentration of 0.2 mg/ml geneticin (G418) for 10 days. Surviving cells forming colonies were separated and analyzed for membrane localization of transporters and transport of taurine. After the selection process cells were kept at 50 μg/ml G418 to keep the selection pressure.
(§2) For saturation uptake experiments, cells were plated the day before the experiment at a density of about 50,000 cells/well onto poly (D-lysine)-coated 48-well culture plates (CytoOne, USA). On the day of the experiment, cells were washed with prewarmed Krebs-HEPES buffer twice (KHB) (120 mM NaCl, 3 mM KCl, 2 mM CaCl2, 2 mM MgCl2, 20 mM glucose, 10 mM HEPES, pH 7.3). Then, cells were incubated in KHB containing tracer amounts (0.1 μM) of [^3H]taurine, (19.1 Ci/mmol) (Perkin Elmer, USA) together with increasing concentrations of non-labeled taurine 10 min. The reaction was terminated after 10 minutes by removing the medium followed by rapid rinsing of cells with ice-cold assay buffer. Subsequently, cells were lysed with 0.5 ml of 1% sodium dodecyl sulfate (SDS) and transferred into scintillation vials for liquid scintillation counting. Non-specific uptake was determined by incubating cells in the presence of the blocker β-alanine (100 mM) before and during the experiment and subtracted from uptake values. Data were fit to a Michaelis-Menten equation.
(§3) Chloride-free KHB was prepared to examine the chloride dependence of both, FhTauT and HsTauT using acetate salts instead of chloride salts. Likewise, NaCl was replaced by choline chloride to examine the sodium requirement. Uptake experiments were performed as described above using 0.1 μM [^3H]taurine in sodium- and chloride-free modified KHB, respectively, mixed with increasing amounts of NaCl containing KHB thereby varying Na^+ and respectively Cl^- concentration from 0–120 mM. The inhibition experiments were performed in analogous manner with 0.1 μM [^3H]taurine and the logarithmically spaced concentrations of inhibitors.

[2] = biological target: T2, human taurine transporter (HsTauT) (Homo sapiens, UniProt P31641); assay: [3H]taurine uptake by HEK293 cells stably expressing the human taurine transporter; details: 0.1 μM [3H]taurine, 10 min
T2 sequence (P31641 1-620): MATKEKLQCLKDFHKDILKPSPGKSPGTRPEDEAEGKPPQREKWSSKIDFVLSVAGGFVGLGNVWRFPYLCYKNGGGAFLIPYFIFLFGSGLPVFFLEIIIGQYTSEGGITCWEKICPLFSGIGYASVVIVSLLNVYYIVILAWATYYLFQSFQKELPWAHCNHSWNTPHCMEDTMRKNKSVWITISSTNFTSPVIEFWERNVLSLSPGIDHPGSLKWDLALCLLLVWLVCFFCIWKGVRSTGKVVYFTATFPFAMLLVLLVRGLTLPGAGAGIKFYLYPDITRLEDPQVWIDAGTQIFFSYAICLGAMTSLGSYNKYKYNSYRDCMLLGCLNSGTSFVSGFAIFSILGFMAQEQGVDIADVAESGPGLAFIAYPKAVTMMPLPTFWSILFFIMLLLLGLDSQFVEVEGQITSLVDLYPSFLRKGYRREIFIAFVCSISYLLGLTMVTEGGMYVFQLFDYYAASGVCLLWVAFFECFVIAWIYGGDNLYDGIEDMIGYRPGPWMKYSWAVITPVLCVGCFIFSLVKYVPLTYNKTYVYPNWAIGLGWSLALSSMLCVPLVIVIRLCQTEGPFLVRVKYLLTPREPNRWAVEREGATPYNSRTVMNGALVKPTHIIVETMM
Description: as §1, §2, §3

taurine transporter = system: taurine transporter; set-up: method as in PMID 1435737; details: 100 μM β-alanine; cited from earlier work
[3] = biological target: T1, F. hepatica taurine transporter (FhTauT); assay: [3H]GABA uptake by HEK293 cells expressing the F. hepatica taurine transporter; type: cell-based; details: 0.3 μM to 3 mM [3H]GABA, three minutes
Description: (§4) GABA uptake was assessed by incubating HEK293 cells (10^5/ well) stably expressing the human GABA-transporter-1 (HsGAT1, diamonds), the F. hepatica taurine transporter (FhTauT, circles) and the human taurine transporter (HsTauT, triangles) in KHB containing concentrations of [^3H]GABA covering the range of 0.3 μM to 3 mM for three minutes. The amount of labeled [^3H]GABA was kept constant and the specific activity was progressively diluted by the addition of unlabeled GABA (from 9 Ci/mmol to 9 Ci/mol). The reaction was stopped by the addition of ice-cold KHB followed by three rapid washes. Cells were detached and the accumulated radioactivity was determined by liquid scintillation counting.
(§5) Supplementary file pntd.0006428.s004.tif: S4 Fig [^3H]GABA uptake by the human GABA-transporter-1, the F. hepatica taurine transporter and the human taurine transporter. HEK293 cells (10^5/ well) stably expressing the human GABA-transporter-1 (HsGAT1, diamonds), the F. hepatica taurine transporter (FhTauT, circles) and the human taurine transporter (HsTauT, triangles) were incubated in the presence of the indicated concentrations of [^3H]GABA. The specific activity was progressively diluted by addition of unlabeled GABA (from 9 Ci/mmol to 9 Ci/mol). After three minutes the reaction was stopped and the accumulated radioactivity was determined by liquid scintillation counting. […]

[4] = system: taurine transporter (Slc6a6/TauT); details: read-out: reported KM for GABA; cited from earlier work
[5] = biological target: T2, human taurine transporter (HsTauT); assay: [3H]GABA uptake by HEK293 cells expressing the human taurine transporter; type: cell-based; set-up: expressed in transfected cells; details: 0.3 μM to 3 mM [3H]GABA, three minutes
Description: as §4, §5

For NCCC(=O)O [β-alanine], the IC50 [1] was 713 ± 260 µM, the “affinity lower than that of taurine” value [1] was “about 50 fold” and the “less potent in inhibiting the F. hepatica than the human transporter” value ([1]; human, hek293 cells) was roughly 5 fold. The IC50 ([2]; IC50 for inhibition of [3H]taurine uptake) was 132 ± 54 µM and the inhibition of uptake (taurine transporter) was “about 50%”.
For NCCCC(=O)O [GABA], the “less potent in inhibiting the F. hepatica than the human transporter” value [1] was “about 3 fold”, the “affinity lower than that of taurine” value ([1]; alternative substrates vs taurine) was roughly 350 fold and the IC50 ([1]; read-out: IC50 for inhibition of [3H]taurine uptake, 0.1 μM [3H]taurine, 10 min) was 5600 ± 900 µM. The IC50 ([2]; read-out: IC50 for inhibition of [3H]taurine uptake) was 1600 ± 500 µM, the “uptake of [3H]GABA” value [3] was “not of GABA” and the “uptake of [3H]GABA” value ([3]; listed as [^3H]GABA) was “failed to detect any uptake”. The Km [4] was 1460 µM and the “uptake of [3H]GABA” value [5] was “failed to detect any uptake”.
